The test system of experiment [1] is HL-60 cells. Put plainly: Cell proliferation test (MTT method). As to conditions: HL-60 cell proliferation, 48 h. In kind it is cell-based. On the procedure:
Tested drugs with different concentrations were added, and repeated four wells for each drug concentration group, then continued to culture in a CO2 incubator. Cell proliferation was detected by MTT method 48 h after culture. 15 ul MTT (5 mg/ml) was added in each well, and continued to culture for 4 h. Suspension in the well was collected, centrifuged, and supernatant was discarded. 100 ul of DMSO was added into each well to completely dissolve formazan particles. The solution was sucked into the original well, the absorbance at 492 nm was detected by ELISA, and the inhibiting rate was calculated according to the formula CI=(1-A test group /A control group)×100%.

For experiment [2], the system named is HL-60 cells. Put plainly: Cell viability test (Trypan blue, live cell rate).

In the case of `O=[As]([O-])([O-])[O-].[Na+].[Na+].[Na+]` [Na3AsO4], the Inhibiting rate came to 2.5% in the experiment with HL-60 cells [1] (7.5 uM), 7.9% with HL-60 cells [1] (15 uM), 13.9% with HL-60 cells [1] (30 uM) and 24.5% in the experiment on HL-60 cells [1] (60 uM). In addition, the “live cell rate at 4 d after administration” value was found to be 93.11% in the experiment on HL-60 cells [2] (7.5 uM); 89.06% in the experiment with HL-60 cells [2] (15 uM); 75.36% in the experiment with HL-60 cells [2] (30 uM); 60.06% in the experiment on HL-60 cells [2] (60 uM); 43.11% with HL-60 cells [2] (120 uM).

The values above are taken from patent publication US9205071B2, “Arsenic compounds, their preparation methods and uses thereof” (Changzhou Hi-Tech District Multiple Dimension Industry …, priority 2009, dated 2015).
